Data as given in US10668109B2, “Conditioning protocols and use of same for tissue regeneration” (Yeda Research and Development Co. Ltd., priority 2015, dated 2020).

Experiments:
[1] = tested on: pulmonary Clara cells; assay: Naphthalene lung injury model, ablation of Clara cells; assay type: in vivo, mouse; conditions: naphthalene alone, C57BL mice
Experimental: For lung injury studies, mice were given an intraperitoneal injection of naphthalene (NA) (more than 99% pure; Sigma-Aldrich), dissolved in corn oil, 200 mg per kg body weight, 40-48 hours before transplantation of embryonic lung tissue. To that end, these cells were initially evaluated in a model based on injury induction with naphthalene, as previously described [[…] et al, American Journal of Physiology-Lung Cellular and Molecular Physiology. (1995) 269(6):791]. This lung injury model mimics lung diseases caused by mild epithelial injury, detectable by changes in the expression of pulmonary Clara cells. The particular anatomical localization of Clara cells in respiratory bronchioles and in broncho-alveolar junctions enabled to accurately localize the site of injury after naphthalene exposure, and to test the ability of a single cell suspension of embryonic “window” cells to colonize and restore the injured epithelial layer in syngeneic recipients.

[2] = tested on: C57BL/6 mice, recipient lungs; assay: Assessment of GFP+ foci in chimeric lungs by morphometry after different conditioning regimens; assay type: in vivo, mouse; conditions: for engraftment / lung chimerism of donor-derived cells: conditioning with NA alone, 1×10^6 E16 lung cells 2 days after NA; for donor-derived foci: E16 lung cells
Experimental: For lung injury studies, mice were given an intraperitoneal injection of naphthalene (NA) (more than 99% pure; Sigma-Aldrich), dissolved in corn oil, 200 mg per kg body weight, 40-48 hours before transplantation of embryonic lung tissue. For ‘double’ lung injury, naphthalene-treated animals were further irradiated in a cesium irradiator (Gammacell 40), (40-48 hours after naphthalene administration). C57BL/6, tdTomato (Gt(ROSA)26Sortm4(ACTB-tdTomato,-EGFP)Luo/J mice, and Rag1^−/− mice were irradiated with 6 Gy TBI, and NOD-SCID mice were irradiated 3-4 Gy TBI. Following conditioning with NA, TBI, or both, C57BL/6 mice were transplanted with 1×10^6 GFP-positive E15-E16 embryonic lung cells injected into the tail vein 4-8 hours following irradiation. Lungs were fixed with a 4% PFA solution introduced through the trachea under a constant pressure of 20 cm H2O. Then the lungs were immersed in fixative overnight at 4° C. Lungs were processed after PFA treatment and fixed in 30% sucrose and frozen in Optimal Cutting Temperature (OCT) compound (Sakura Finetek USA, Inc. Tissue-Tek). Serial step sections, 12 μm in thickness, were taken along the longitudinal axis of the lobe. The fixed distance between the sections was calculated so as to allow systematic sampling of at least 20 sections across the whole lung. Lung slices were analyzed by fluorescence microscopy. The actual number of GFP^+ foci (a group of more than 5 distinct GFP^+ cells was defined as a single patch) was counted per slice using Image Pro software. The area of each slice was estimated by Image Pro software, and the average area of slices and average frequency of GFP^+ patches in all the slices were assessed (patch(P)/Area(A) (mm2)), assuming that the frequency per area in a large number of slices reflects distribution per volume.

[3] = tested on: endogenous lung progenitors; assay: BrdU incorporation assay (lung cell proliferation in vivo); design: species or system mouse
Experimental: Lung cell proliferation was measured in vivo by BrdU uptake. Briefly, control and four groups of experimental mice (7 days following naphthalene administration and 5 days after TBI) received a single dose of BrdU (Sigma) intraperitoneally 120 minutes before sacrifice (at a dose of 50 mg per kg of body weight). Lungs were excised, left lungs were enzymatically digested (using the same protocol as for embryonic tissue dissociation) for polychromatic FACS analysis, and right lungs were fixed with 4% PFA and processed for further immunofluorescence staining. Multiple serial slices were costained with anti-BrdU-FITC and anti-CCSP or anti-SPC antibodies. All FACS and immunohistochemical studies were done using the BrdU flow kit (BD Biosciences), according to the manufacturer's instructions. For morphometric analysis of CCSP^+BrdU^+ and SPC^+BrdU^+ cells, images were stained with anti-CCSP and anti-BrdU or anti-SPC and anti-BrdU antibodies and nuclei counterstained with Hoechst dye. The images were acquired by an observer blinded to the treatment groups, using an Olympus fluorescent microscope and Olympus digital camera (DP70) with a ×40 objective. At least 20 different stained random fields were counted for each marker.

**Q.** What does the source list for `c1ccc2ccccc2c1` [naphthalene]?
**A.** ablation of Clara cells [1]: transient; GFP positive patches (engraftment of donor-derived cells) ([2]; NA and 6 Gy TBI vs TBI alone or NA alone, 30 days post transplant): markedly enhanced; engraftment / lung chimerism of donor-derived cells [2]: could not enable significant engraftment; engraftment / lung chimerism of donor-derived cells ([2]; listed as NA): failed to attain a detectable level of lung chimerism; donor-derived foci ([2]; conditioning with naphthalene alone, 30 days post transplant): 10-12 foci/mm^3; donor-derived foci ([2]; conditioning with naphthalene and 6 Gy TBI, 30 days post transplant): 55 foci/mm^3; endogenous cell recovery ([3]; 6 Gy TBI 48 hrs after NA treatment): inhibited; level of BrdU+ cells within endothelial, epithelial and mesenchymal lineages (FACS) ([3]; 6 Gy TBI administered 48 hrs after NA): significantly reduced; ablation of endogenous pool of progenitors ([3]; 6 Gy TBI prior to NA treatment): did not effectively ablate the endogenous pool of progenitors; endogenous BrdU+ proliferating cells ([3]; NA alone, no transplantation): marked signal of endogenous BrdU^+ proliferating cells
